Results on three molecules are retold here after patent publication US11834431B2, “Crystals of cyclic amine derivative and pharmaceutical use thereof” (Toray Industries, Inc., priority 2016, dated 2023).

Where only a bound is given, the exact number is not on record here.

As a reminder, the solubility is the concentration that dissolves in the medium under given conditions.

Data set [1] is described as follows: Evaluation of storage stability, Form A crystal versus amorphous matter (HPLC purity). Type of data set: physicochemical. As to conditions: airtight state.
A short description of data set [2]: Dissolution of amorphous matter in various solvents (selection of crystallization solvents). Type of data set: physicochemical. As for the experimental part:
The amorphous matter (10 mg) of compound (I) was weighed into a borosilicate glass vial, each solvent in Table 3 was added at the corresponding amount of solvent added in Table 3, and confirmed whether or not the amorphous matter was dissolved. […] Subsequently, the vial was shaken at room temperature in an airtight state for 7 days. However, no solid precipitated in either case. […] It was therefore judged that they were unsuitable as a crystallization solvent.

The nature of data set [3]: Evaluation of hygroscopicity (equilibrium moisture measurement). Type of data set: physicochemical. The following applies: 30° C. How it is done:
Equilibrium moisture measurement was performed on Form A crystal and the amorphous matter of compound (I) under the following conditions using a fully automated symmetric vapor sorption analyzer (TA Instruments Inc.; VTI-SA+). […] The change in appearance was also observed.

Data set [4] in a line: Evaluation of solubility in Japanese Pharmacopoeia test fluids. Type of data set: physicochemical. The following applies: aqueous buffer, thermodynamic from solid; 2nd fluid for disintegration test of the Japanese Pharmacopoeia 16th edition (pH 6.8), 37° C., 30 minutes; read-out: Solubility (37° C.). As for the experimental part: Form A crystal of compound (I) (100 mg) was weighed into a borosilicate glass vial, and the 1st fluid for disintegration test/1st fluid for dissolution test of the Japanese Pharmacopoeia 16th edition (pH 1.2)(1 mL) or the 2nd fluid for disintegration test of the Japanese Pharmacopoeia 16th edition (pH 6.8)(1 mL) was added in a temperature and humidity test chamber (Amefrec Co., Ltd.; NO DOORα) adjusted to 37° C., followed by stirring. Form B crystal of ethane disulfonate of compound (I) (10 mg) was weighed into a borosilicate glass vial, and the 2nd fluid for disintegration test of the Japanese Pharmacopoeia 16th edition (pH 6.8) (0.1 mL) was added in a temperature and humidity test chamber (Amefrec Co., Ltd.; NO DOORα) adjusted to 37° C., followed by stirring. After 30 minutes, the inside of each vial was visually checked, and it was confirmed that each crystal was completely dissolved.

Another data set relates to fibromyalgia model rats. Kind of data set: Analgesic effect on allodynia in fibromyalgia model rats (von Frey, 50% response threshold). Type of data set: in vivo, rat. The following applies: oral 10 mg/kg, measured 3 hours after administration, Day 7, compared to negative control group. As for the experimental part:
The analgesic effect of the crystal of compound (I) or the pharmacologically acceptable salt thereof against fibromyalgia syndrome was evaluated using fibromyalgia model rats (Sluka et al., Journal of Pharmacology and Experimental Therapeutics, 2002, vol. 302, pp. 1146-1150; Nagakura et al., Pain, 2009, vol. 146, pp. 26-33; Sluka et al., Pain, 2009, vol. 146, pp. 3-4). Form A crystal of compound (I) was used as a crystal of compound (I) or the pharmacologically acceptable salt thereof for evaluation.
The above model rats were prepared as follows. In experiments, 6-to 7-week-old SD male rats were used for 5 or 6 cases per group. 100 μL of acidic physiological saline adjusted to pH 4.0 was administered twice to the gastrocnemius muscle of the right hind paw of each rat (the day of the administration of acidic physiological saline was defined as Day 1 after the start of the experiment, and single dose administrations were carried out on Days 1 and 6 after the start of the experiment) under inhalation anesthesia with isoflurane. The thus prepared group was determined to be an acidic physiological saline group. As a control for the model, a group treated with a physiological saline instead of an acidic physiological saline was determined to be a physiological saline group.
Allodynia observed in fibromyalgia model rats was measured using a von Frey filaments according to a method described in a known publication (Chaplan et al., Journal of Neuroscience Methods, 1994, vol. 53, pp. 55-63) and a 50% response threshold (g) was determined. On Day 7 after the start of the experiment, allodynia was measured 3 hours after oral administration of Form A crystal of compound (I), and the analgesic effect was evaluated. Allodynia of the acidic physiological saline group was measured before oral administration of Form A crystal of compound (I). […] Allodynia was measured 3 hours after the oral administration of the crystal of compound (I), and the analgesic effect was evaluated. […]

In data set [5] the test system is spinal nerve ligation model rats (neuropathic pain model rats). The experiment in a line: Analgesic effect on allodynia in spinal nerve ligation model rats (von Frey, 50% response threshold). The class given is in vivo, rat. As to conditions: oral 10 mg/kg, measured 3 hours after administration, 8 days after ligation, compared to negative control group. How it is done:
Analgesic effects of the crystal of compound (I) or the pharmacologically acceptable salt thereof upon neuropathic pain were evaluated using spinal nerve ligation model rats (Kim and Chung, Pain, 1992, vol. 50, p. 355). Form A crystal of compound (I) was used as a crystal of compound (I) or the pharmacologically acceptable salt thereof for evaluation.
The above model rats were prepared as follows. In experiments, 6-to 7-week-old SD male rats were used for 5 to 7 cases per group, and the lumbar skin and muscle of each rat were dissected to expose the L5 and L6 […] under inhalation anesthesia with isoflurane. After ligating the L5 and L6 spinal nerves with silk suture, the wound of each rat was sutured. Thus, a nerve ligation group was prepared. The group in which the nerve was exposed but not ligated was determined to be a sham surgery group.
Allodynia observed in spinal nerve ligation model rats was measured using a von Frey filaments according to a method described in a known publication (Chaplan et al., J. Neurosci. Methods, 1994, vol. 53, p. 55) and a 50% response threshold (g) was determined. Eight days after the ligation surgery, allodynia of the nerve ligation group was measured before oral administration of Form A crystal of compound (I). Rats with a 50% response threshold (average value of the right hind paw and the left hind paw) of 2 g to less than 6 g were considered to have developed allodynia. The rats were divided as neuropathic pain model rats into groups such that there was no significant difference in the 50% response threshold between groups. Allodynia was measured 3 hours after the oral administration of Form A crystal of compound (I), and the analgesic effect was evaluated. Pregabalin was used as a positive control.
Form A crystal of compound (I) was dissolved in water for injection (distilled water) to result in concentrations of 5, 10, and 20 mg/mL, and orally administered in a dose volume of 1 mL per kg body weight. Pregabalin was dissolved in water for injection (distilled water) to result in a concentration of 10 mg/mL and orally administered in a dose volume of 1 mL per kg of body weight. Water for injection (distilled water) was orally administered to the sham surgery group. A group in which water for injection (distilled water) was orally administered to rats in the nerve ligation group was defined as a negative control group.
The horizontal axis represents the solution to be administered in each group, namely, the nerve ligation group or sham surgery group, and the vertical axis represents the 50% response threshold (g) (mean±standard error, n=5 to 7). […]

The mark [6] stands for this setting: 40° C., relative humidity 75%, 8 weeks.

With `CN(C)C1CCN(C(=O)C[C@H](O)c2nccn2C)CC1` [Amorphous matter, (S)-1-(4-(dimethylamino)piperidin-1-yl)-3-hydroxy-3-(1-methyl-1H-imidazol-2-yl)propan-1-one], the “Chemical purity, After storage” value is on record as 97.2% in data set [1] (setting [6]) and 91.5% in data set [1] (60° C., 4 weeks). Besides, the “Decomposition product increased by not less than 0.15% after storage” value in data set [1] (setting [6]) is listed as 4 different; in data set [1] (60° C., 4 weeks), 7 different. Moreover, the “Optical purity, After storage” value in data set [1] (setting [6]) is reported as 98.7 % ee; in data set [1] (60° C., 4 weeks) it was 98.9 % ee. The Appearance of solution entry in data set [2] (1-Butanol, 0.02 mL added, 500 mg/mL) is recorded as “Soluble”; in data set [2] (1-Propanol, 0.02 mL added, 500 mg/mL), “Soluble”; in data set [2] (2-Butanone, 0.02 mL added, 500 mg/mL) it was “Soluble”; in data set [2] (2-Propanol, 0.005 mL added, 2000 mg/mL), “Soluble”; in data set [2] (2-Propanol, 0.02 mL added, 500 mg/mL) it was “Soluble”; in data set [2] (4-Methyl-2-pentanone, 0.02 mL added, 500 mg/mL) it was “Soluble”. Also, the Appearance of solution entry was “Soluble” in data set [2] (Acetone, 0.01 mL added, 1000 mg/mL); “Soluble” in data set [2] (Acetone, 0.02 mL added, 500 mg/mL); “Soluble” in data set [2] (Acetonitrile, 0.005 mL added, 2000 mg/mL); “Soluble” in data set [2] (Acetonitrile, 0.02 mL added, 500 mg/mL); “Soluble” in data set [2] (Chlorobenzene, 0.02 mL added, 500 mg/mL); “Soluble” in data set [2] (Chloroform, 0.005 mL added, 2000 mg/mL). For the same molecule, the Appearance of solution entry in data set [2] (Chloroform, 0.02 mL added, 500 mg/mL) is “Soluble”; in data set [2] (Cyclohexane, 0.02 mL added, 500 mg/mL), “Insoluble”; in data set [2] (Cyclohexane, 3 mL added, 3 mg/mL) it was “not dissolved at all”; in data set [2] (Cyclohexane, 3 mL added, 3 mg/mL, listed as amorphous matter of compound (I)), “Insoluble”; in data set [2] (Ethanol, 0.02 mL added, 500 mg/mL) it was “Soluble”; in data set [2] (Ethyl acetate, 0.005 mL added, 2000 mg/mL) it was “Soluble”. Also, the Appearance of solution result in data set [2] (Ethyl acetate, 0.01 mL added, 1000 mg/mL) was “Soluble”; in data set [2] (Ethyl acetate, 0.02 mL added, 500 mg/mL) it was “Soluble”; in data set [2] (Ethyl formate, 0.02 mL added, 500 mg/mL), “Soluble”; in data set [2] (Heptane, 0.02 mL added, 500 mg/mL), “Insoluble”; in data set [2] (Heptane, 3 mL added, 3 mg/mL), “not dissolved at all”; in data set [2] (Heptane, 3 mL added, 3 mg/mL, listed as amorphous matter of compound (I)), “Insoluble”. The Appearance of solution entry in data set [2] (Isobutyl acetate, 0.02 mL added, 500 mg/mL) is “Soluble”; in data set [2] (Isopropyl acetate, 0.02 mL added, 500 mg/mL), “Soluble”; in data set [2] (Methanol, 0.005 mL added, 2000 mg/mL), “Soluble”; in data set [2] (Methanol, 0.02 mL added, 500 mg/mL) it was “Soluble”; in data set [2] (Methyl acetate, 0.02 mL added, 500 mg/mL), “Soluble”; in data set [2] (Tetrahydrofuran, 0.01 mL added, 1000 mg/mL) it was “Soluble”. Moreover, the Appearance of solution result in data set [2] (Tetrahydrofuran, 0.02 mL added, 500 mg/mL) was “Soluble”; in data set [2] (Toluene, 0.005 mL added, 2000 mg/mL), “Soluble”; in data set [2] (Toluene, 0.02 mL added, 500 mg/mL), “Soluble”; in data set [2] (Water, 0.02 mL added, 500 mg/mL), “Soluble”. In data set [2] (each solvent in Table 3 (text summary; cyclohexane and heptane excepted)), the “concentration at which completely dissolved” value is not below 500000 µg/mL. Besides, the “relative humidity at which the substance deliquesced” value in data set [3] is “less than 5%”. The Change in appearance result in data set [3] (humidification, listed as amorphous matter) is on record as “turned into oil matter”.
As to `CN(C)C1CCN(C(=O)C[C@H](O)c2nccn2C)CC1` [Form B crystal of ethane disulfonate, (S)-1-(4-(dimethylamino)piperidin-1-yl)-3-hydroxy-3-(1-methyl-1H-imidazol-2-yl)propan-1-one], in data set [4], the solubility at 30 min is more than 100 mg/mL.
Consider `CC(C)C[C@H](CN)CC(=O)O` [pregabalin, reference compound], for which the “improvement of allodynia (50% response threshold)” value (in the data set with fibromyalgia model rats; in data set [5]) was “significant improvement” in each case.
